# Test results as given in patent US7749976B2, “Isolated PTPMT1 protein which mediates insulin production and uses thereof” (The Regents of the University of California, priority 2005, dated 2010).
# What was measured:
# Type in all cases: cell-based, rat
# INS-1 832/13 cells [1] = assay: Glucose-stimulated insulin secretion assay; conditions: basal (3 mM) and glucose stimulated (15 mM) conditions, out to 120 min
# Experimental: INS-1 832/13 cells (5×10^6 per reaction) were electroporated as above, and split between 4 wells of a 12-well plate. After 72 hours, cells were washed once with low glucose (3 mM) standard assay buffer (SAB: 114 mM NaCl, 4.7 mM KCl, 1.2 mM KH2PO4, 1.16 mM MgSO4, 20 mM HEPES pH 7.2, 25.5 mM NaHCO3, 10 mM CaCl2, 0.2% BSA), and then preincubated for 2 hours in fresh low glucose SAB. After preincubation, 1 mL of low or high (15 mM) glucose SAB was added to each well. At the end of the incubation time, the SAB was removed and saved, and the cells were washed once in PBS, and lysed by freezing and thawing in a Tris-EDTA solution (20 mM Tris pH 7.4, 20 mM EDTA pH 8.0, 10 mM DTT, protease inhibitors). A Bio-Rad protein assay was performed on each lysate sample to standardize the insulin assay results for protein. The ^125I-insulin Coat-A-Count RIA (Diagnostic Products Corp.) was used to assay SAB samples for insulin content.
# To test this, INS-1 832/13 cells were again treated with luciferase (control) or PTPMT1 siRNA. Seventy-two hours post siRNA treatment, cells were washed with PBS, and incubated in media containing 3 mM glucose for 2 hrs to normalize insulin release. Fresh media containing either 3 mM (low) or 15 mM (high) glucose media was then added to the cells and insulin secretion analyzed out to 120 min. […]
# PTPMT1 = assay: Knockdown of PTPMT1 expression (immunoblot); conditions: Amaxa nucleoporation, INS-1 832/13 cells
# Experimental: (§1) PTPMT1 expression in INS-1 832/13 cells was knocked down using 200 pmol of Ambion siRNA (sense: 5′-GUCUGUGGAUGACAAAGAAtt-3′ (SEQ ID NO:3), antisense: UUCUUUGUCAUCCACAGACtt-3′ (SEQ ID NO:4)) in an Amaxa nucleoporator with buffer T on program T-20, according to the manufacturer's protocol. Approximately 72 hrs post siRNA treatment, cells were treated as outlined in the text, pelleted and lysed in 2% TCA via sonication and/or vortexing. Precipitates were pelleted at 13,200 rpm for 2 minutes. The supernatant was removed, neutralized with 0.5 M Tris pH 7.4, and analyzed for ATP using Promega's ENLITEN luciferase bioluminescence reagent at an appropriate dilution. All ATP measurements were normalized to protein levels, as measured by the BCA method (Pierce). ADP levels were determined by converting ADP to ATP with pyruvate kinase, remeasuring ATP by the above assay, and subtracting the initial ATP readings, as reported (Gorman et al., 2003).
# FIG. 10 illustrates that PTPMT1 is involved in the regulation of mitochondrial ATP production. […] In C whole cell ADP was measured as above.
# To simultaneously assess the effect that knockdown of PTPMT1 has on mitochondrial phosphoproteins and PI(5)P levels, its expression was knocked-down in a large quantity of INS-1 832/13 cells using adenovirus-delivered siRNA. […]
# INS-1 832/13 cells [2] = assay: ATP and ADP assays in siRNA-treated INS-1 832/13 cells
# Experimental: as §1
# Given PTPMT1's likely juxtaposition with members of the respiratory chain on the inner mitochondrial membrane, assessment of PTPMT1's endogenous function was carried out by measuring its effect on cellular ATP levels. […] Seventy-two hours post siRNA treatment, cells were washed and incubated in a 3.0 mM glucose medium for 2 hr. Cells were then lysed and ATP levels analyzed using a luciferase based luminometry reaction. Strikingly, knockdown of PTPMT1 expression increased ATP levels by an average of 82% over control cells across three separate experiments (FIG. 10B). […] ATP/ADP ratio (FIG. 10C). […] AMPK serves as a sensor of cellular energy status, becoming dephosphorylated (inactivated) when the cellular AMP:ATP ratio decreases. Consistent with the above data, AMPK is more highly phosphorylated in the control cells following the above incubation in low glucose (FIG. 10D). Thus, knockdown of PTPMT1 results in a true increase in cellular energy status, as opposed to merely a general increase in the cellular adenine pool.
substance,measurement,setting,value
"PTPMT1 siRNA: Ambion siRNA sense 5′-GUCUGUGGAUGACAAAGAAtt-3′ (SEQ ID NO:3), antisense UUCUUUGUCAUCCACAGACtt-3′ (SEQ ID NO:4) (sense GUCUGUGGAUGACAAAGAATT; antisense UUCUUUGUCAUCCACAGACTT; chemistry not given here)",Insulin secretion versus control,INS-1 832/13 cells [1],increased insulin secretion at nearly all time points
same,Endogenous PTPMT1 expression,PTPMT1,highly effective at ablating endogenous PTPMT1 expression
same,Increase in ATP levels over control cells,"INS-1 832/13 cells [2]; 72 h post siRNA, 2 hr in 3.0 mM glucose, average of three experiments",82%
same,ADP levels versus control,"INS-1 832/13 cells [2]; 72 h post siRNA, low glucose 2 h","Very little, if any, difference"
same,ATP levels versus control with FCCP,INS-1 832/13 cells [2]; same buffer containing 10 μM FCCP,no difference in ATP levels
